Data: patent US20240165112A1, “THERAPY FOR THE TREATMENT OF CANCER” (Bristol-Myers Squibb Company, priority 2022, published 2024)

What was measured:
[1] = tested on: primary human macrophages; assay: Primary macrophage viability (Cell Titer Glo); assay type: cell-based; conditions: Cell Titer Glo at the end of the experiment; any of the doses tested
Method: FIG. 12 illustrates the effect of Compound 1 on Primary Macrophage Viability. Primary human monocytes were differentiated into macrophages and treated with varying doses of DMSO or Compound 1. Cell viability was assessed by Cell Titer Glo 24 hours after drug treatment. Viability in drug treatment groups was normalized to the equivalent DMSO concentration. Data are plotted as the mean and standard deviation of 3 donors and representative of 2 independent experiments. Abbreviations: DMSO, dimethyl sulfoxide.
Peripheral blood mononuclear cells (PBMCs) were isolated from human blood using aseptic conditions. CD14+ monocytes were enriched from PBMC using Miltenyi Biotech kit (using CD14 microbeads). Fresh CD14+ monocytes were differentiated to macrophages using complete RPMI1640 medium with M-CSF recombinant human protein at the final concentration of 50 ng/mL. At Day 3-4, media containing M-CSF was added on monocytes/macrophages and incubated for 6-7 days in 5% CO2 incubator at 37° C. 10 mL 10 mM EDTA or Detachin was added to the culture dish containing macrophages, and let sit for 20-30 minutes, or until cells dissociate from the dish at room temperature. Macrophages were collected and washed in a 50 mL conical tube and centrifuged at 300-400×g for 4-5 minutes at room temperature. […]

[2] = tested on: phospho-c-Jun in lung cancer-associated fibroblasts (CAF); assay: TGF-β-induced c-Jun phosphorylation (capillary western); assay type: cell-based; conditions: Homo sapiens, Fibroblast, 10 ng/mL TGF-β for 2 hours, western blot, read-out: EC50 on phospho-c-Jun levels
Method: (§1) Normal human lung fibroblasts (NHLF, black circle) or lung cancer-associated fibroblasts (CAF, black square) were treated with 10 ng/mL TGF-β after 1 hour pre-incubation with a range of Compound 1 concentrations, and cells were lysed 2 hours later. Phospho-c-Jun levels were evaluated by western blot. Abbreviations: CAF, cancer-associated fibroblasts; NHLF, normal lung human fibroblasts; TGF-β, transforming growth factor beta.
(§2) Normal human lung fibroblasts (NHLF) and lung cancer-associated fibroblasts (CAF) were maintained in their respective vendor recommended media. For the purposes of comparing the two cell lines, NHLF and lung CAF were both adapted to DMEM+10% fetal bovine serum (FBS) and to RPMI+10% FBS prior to use in the activation assay. Cells were seeded (150,000 NHLF and lung CAF cells) in 12 well plates and allowed to adhere overnight at 37° C., 5% CO2. The next day, cells were pre-treated for […] at 37° C. with DMSO or Compound 1 at 30 μM, 7.5 μM, 1.875 μM, 0.469 μM, 0.117 μM, 0.029 μM, and 0.007 μM. […]
(§3) The levels of phospho-c-Jun in NHLF and non-small cell lung CAF in response to TGF-β in the presence of DMSO or varying concentrations of Compound 1 were summarized in FIG. 7. […] Phospho-c-Jun levels were determined by western blot analysis and were normalized to DMSO treated samples.

[3] = tested on: phospho-c-Jun in normal human lung fibroblasts (NHLF); assay: as above; assay type: cell-based; conditions: Fibroblast, 10 ng/mL TGF-β for 2 hours, western blot, read-out: EC50 on phospho-c-Jun levels
Method: as §1, §2, §3

[4] = tested on: Eleven patient-derived tumor organoids; assay: 3D clonogenic assay, summary over the organoid panel; assay type: cell-based, human; conditions: for median percent colony reduction relative to DMSO: 11 organoid cultures
Method: Five tumor cell lines (4T1.2, A549, EMT6, NCI-H460, and HT29) were treated with a range of paclitaxel or 5-FU concentrations in the presence of dimethlylsulfoxide (DMSO), 5 μM Compound 1, or 20 μM Compound 1. Cells were imaged 4 days after treatment and percent confluence was assessed by image quantification. EC50 values for cell confluence were used to assess chemotherapy potency. Eleven patient-derived tumor organoids (MAXFTN449, MAXFTN2990, PAXF1657, PAXF2131, CXF1256, CXF2129, CXF2061, LXFE2478, LXFE690, LXFA677, LXFA644) were seeded in a 3D matrix and treated with a range of paclitaxel, 5-FU, SN38, Gemcitabine, oxaliplatin, and carboplatin concentrations in the presence of DMSO, 5 μM Compound 1, or 20 μM Compound 1. After 8 to 13 days in culture, colonies were stained, imaged, and counted. A dose response curve was generated for chemotherapy alone or chemotherapy in combination with 5 or 20 μM Compound 1. Combination activity was defined as a percentage of the area under the chemotherapy dose response curve (cAUC) for Compound 1 combination groups compared to the cAUC of chemotherapy alone.
The clonogenic assay was carried out in a 96 well plate format using ultra low attachment plates. For each test, plates were prepared as follows: each test well contained a layer of semi-solid medium with tumor cells (50 μL), and a second layer of medium supernatant with or without test compound (100 μL). The cell layer consisted of […] to 12.5×10^3 tumor cells per well, which were seeded in 50 μL/well cell culture medium (IMDM, supplemented with 20% (v/v) fetal bovine serum, 50 μg/mL gentamicin, and 0.4% (w/v) agar). After 24 hours, the soft-agar layer was covered with 90 μL of the same culture medium without agar, and 10 μL of control medium or test compound after serial dilution in DMSO for the duration of the experiment (continuous exposure, 100 μL drug overlay).
After 8 to 13 days in culture, colonies were stained, imaged, and counted.

Structure (SMILES): C[C@@H]1CC[C@@H](Nc2nc(NC(C)(C)C)ncc2C(N)=O)C[C@H]1O [Compound 1, 2-(tert-butylamino)-4-((1R,3R,4R)-3-hydroxy-4-methylcyclohexylamino)-pyrimidine-5-carboxamide]
- Macrophage cell viability relative to DMSO [1]: No change in cell viability
- EC50 [2]: 330 nM
- EC50 [3]: 350 nM
- organoid cultures with an average percent colony reduction greater than 20% ([4]; 5 μM Compound 1): 8 out of 11
- median percent colony reduction relative to DMSO ([4]; 5 μM Compound 1): 39%
- organoid cultures with an average percent colony reduction greater than 20% ([4]; 20 μM Compound 1): 10 out of 11
- median percent colony reduction relative to DMSO ([4]; 20 μM Compound 1): 34%
